# Literature values as cited in patent US20250151766A1, “SWEETENED COMPOSITION AND PREPARATION METHOD AND USE THEREOF” (GUILIN LAYN NATURAL INGREDIENTS CORP., priority 2022, published 2025).
# Conditions: general statement in the description
compound,measurement,value
O=C(CO)[C@@H](O)[C@H](O)[C@H](O)CO [fructose],sweetness,1.5 ×
